Where a SMILES comes first, the peptide text is derived from it. The star is where a group is joined. Biotin = O=C1N[C@H]2[C@H](CS[C@H]2CCCCC(=O)*)N1
Target: T1, Tiam2 PHCCEx domain (Mus musculus, UniProt Q6ZPF3)
T1 sequence (Q6ZPF3 500-757): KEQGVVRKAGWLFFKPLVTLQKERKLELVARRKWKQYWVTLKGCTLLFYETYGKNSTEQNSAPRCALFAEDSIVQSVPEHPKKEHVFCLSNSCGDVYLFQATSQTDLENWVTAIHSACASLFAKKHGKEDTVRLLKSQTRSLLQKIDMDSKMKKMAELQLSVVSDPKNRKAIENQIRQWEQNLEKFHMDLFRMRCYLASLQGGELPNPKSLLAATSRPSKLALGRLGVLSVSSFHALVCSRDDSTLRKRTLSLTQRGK
Assay: Equilibrium SPR binding of biotinylated peptides to the Tiam2 PHCCEx domain
Conditions: N-terminal biotinylated peptide immobilized

Binding to the Tiam2 PHCCEx domain (in words)	Compound
in the micromolar range	CC[C@H](C)[C@H](NC(=O)[C@H](CC(=O)O)NC(=O)[C@H](CO)NC(=O)[C@@H]1CCCN1C(=O)[C@H](CCC(=O)O)NC(=O)[C@@H](NC(=O)CNC(=O)[C@H](C)NC(=O)CCCC[C@@H]1SC[C@@H]2NC(=O)N[C@@H]21)[C@@H](C)O)C(=O)N[C@H](C(=O)N[C@H](C(=O)N1CCC[C@H]1C(=O)N[C@@H](CC(C)C)C(=O)N[C@@H](CCCNC(=N)N)C(=O)N[C@H](C(=O)N[C@H](C(=O)N[C@@H](CCC(=O)O)C(=O)N[C@@H](CC(N)=O)C(=O)N[C@@H](CC(N)=O)C(=O)N[C@@H](Cc1ccc(O)cc1)C(=O)O)[C@@H](C)O)[C@@H](C)O)[C@@H](C)CC)[C@@H](C)CC [ephrin B1 294–312] (Biotin-AGTEPSDIIIPLRTTENNY-OH; C-terminus assumed)
weaker binding	CC[C@H](C)[C@H](NC(=O)CNC(=O)[C@H](CC(C)C)NC(=O)[C@H](CCC(=O)O)NC(=O)CNC(=O)[C@@H]1CCCN1C(=O)[C@H](CCC(=O)O)NC(=O)[C@H](C)NC(=O)[C@H](CCC(=O)O)NC(=O)[C@H](CCCNC(=N)N)NC(=O)CCCC[C@@H]1SC[C@@H]2NC(=O)N[C@@H]21)C(=O)N[C@@H](C)C(=O)N[C@@H](CC(C)C)C(=O)N[C@@H](CCCNC(=N)N)C(=O)NCC(=O)NCC(=O)NCC(=O)N[C@H](C(=O)N[C@@H](C)C(=O)N[C@@H](CC(=O)O)C(=O)O)[C@@H](C)O [ephrin B3 286–303] (Biotin-REAEPGELGIALRGGGTAD-OH; C-terminus assumed)
in the micromolar range	CC[C@H](C)[C@H](NC(=O)[C@@H](NC(=O)[C@H](CC(=O)O)NC(=O)[C@H](CO)NC(=O)[C@@H]1CCCN1C(=O)[C@H](CCC(=O)O)NC(=O)[C@H](CO)NC(=O)CNC(=O)[C@H](CC(N)=O)NC(=O)CCCC[C@@H]1SC[C@@H]2NC(=O)N[C@@H]21)C(C)C)C(=O)N[C@H](C(=O)N1CCC[C@H]1C(=O)N[C@@H](CC(C)C)C(=O)N[C@@H](CCCNC(=N)N)C(=O)N[C@H](C(=O)N[C@@H](C)C(=O)N[C@@H](CC(=O)O)C(=O)N[C@@H](CO)C(=O)N[C@H](C(=O)N[C@@H](Cc1ccccc1)C(=O)O)C(C)C)[C@@H](C)O)[C@@H](C)CC [ephrin B2 285–302] (Biotin-NGSEPSDVIIPLRTADSVF-OH; C-terminus assumed)

Source: paper PMC2775898 (The EMBO Journal, 2009)
